The source of these data is ChEMBL document CHEMBL5131537 (J Med Chem, 2022).

SMILES strings stand for the structures.

A short description of data set [1]: Half life in Sprague-Dawley rat at 1 mg/kg, iv measured after 0.083 to 24 hrs by LC-MS analysis. Format: ADME, organism-based. Particulars: in vivo, time 0.083-24 hrs.
Data set [2] concerns Human immunodeficiency virus 1. Description: Antiviral activity against HIV-1 IIIB harboring reverse transcriptase […] mutant infected in human MT4 cells by MTT assay. It counts as functional, organism-based. Particulars: Human immunodeficiency virus 1, IIIB. (Tetrazolium dyes change colour on reduction, which living cells bring about.)
Another data set addresses T1, Cytochrome P450 1A2 (Homo sapiens, UniProt P05177).
T1 sequence (P05177 whole entry): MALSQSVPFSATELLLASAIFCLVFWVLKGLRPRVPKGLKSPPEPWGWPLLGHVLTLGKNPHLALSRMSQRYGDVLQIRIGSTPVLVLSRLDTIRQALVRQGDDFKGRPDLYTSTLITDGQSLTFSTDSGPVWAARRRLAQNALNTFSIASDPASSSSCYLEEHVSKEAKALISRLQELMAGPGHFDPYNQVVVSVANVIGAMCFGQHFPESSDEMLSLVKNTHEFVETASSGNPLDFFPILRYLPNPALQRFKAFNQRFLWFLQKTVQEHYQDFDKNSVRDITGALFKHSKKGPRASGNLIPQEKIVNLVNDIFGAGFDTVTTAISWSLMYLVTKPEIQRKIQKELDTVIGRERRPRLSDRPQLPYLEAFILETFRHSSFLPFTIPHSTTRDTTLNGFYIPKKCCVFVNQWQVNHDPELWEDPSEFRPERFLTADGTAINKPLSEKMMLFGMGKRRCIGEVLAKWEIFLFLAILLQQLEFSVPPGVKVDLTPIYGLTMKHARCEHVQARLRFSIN
Description: Inhibition of CYP1A2 in human liver microsomes using phenacetin as substrate incubated for 15 to 45 mins in presence of NADPH. (In general: Liver microsomes are vesicles of endoplasmic reticulum, rich in cytochrome P450 enzymes.)

The target of a further data set is Cytochrome P450 2D6 (Homo sapiens, UniProt P10635). Description: Inhibition of CYP2D6 in human liver microsomes using dextromethorphan as substrate incubated for 15 to 45 mins in presence of NADPH.
Cytochrome P450 2D6, sequence (P10635 whole entry): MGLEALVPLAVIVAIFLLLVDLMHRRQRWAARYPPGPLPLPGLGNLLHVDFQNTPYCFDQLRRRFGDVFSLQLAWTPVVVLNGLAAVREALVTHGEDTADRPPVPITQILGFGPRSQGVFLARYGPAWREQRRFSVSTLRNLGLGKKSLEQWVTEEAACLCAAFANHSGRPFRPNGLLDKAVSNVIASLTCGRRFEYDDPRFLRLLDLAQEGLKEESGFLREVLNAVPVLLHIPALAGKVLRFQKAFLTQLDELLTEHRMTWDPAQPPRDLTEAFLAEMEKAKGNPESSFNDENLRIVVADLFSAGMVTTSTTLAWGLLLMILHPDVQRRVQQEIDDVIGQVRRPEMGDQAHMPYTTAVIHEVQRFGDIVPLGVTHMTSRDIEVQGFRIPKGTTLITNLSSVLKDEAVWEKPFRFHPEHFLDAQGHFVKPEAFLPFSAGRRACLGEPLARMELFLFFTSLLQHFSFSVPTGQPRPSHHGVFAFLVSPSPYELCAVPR
A short description of data set [3]: Tmax in Sprague-Dawley rat at 1 mg/kg, iv measured after 0.083 to 24 hrs by LC-MS analysis. It counts as ADME, organism-based. Particulars: in vivo, time 0.083-24 hrs.
Data set [4] in a line: AUC (0 to t) in Sprague-Dawley rat at 5 mg/kg, po measured after 0.083 to 24 hrs by LC-MS analysis. Particulars: in vivo. It counts as ADME, organism-based. Details: dose 5 mg/kg, time upper 24 hrs, time lower 0.083 hrs, route po.
A short description of data set [5]: AUC (0 to infinity) in Sprague-Dawley rat at 5 mg/kg, po measured after 0.083 to 24 hrs by LC-MS analysis. It counts as ADME, organism-based. Particulars: in vivo. Further details: time upper 24 hrs, dose 5 mg/kg, time lower 0.083 hrs, route po.
Data set [6] in a line: MRT (0 to infinity) in Sprague-Dawley rat at 1 mg/kg, iv measured after 0.083 to 24 hrs by LC-MS analysis. Format: ADME, organism-based. Particulars: in vivo, time 0.083-24 hrs.
Data set [7] is described as follows: Acute toxicity in 12 hr fasted male CD-1(ICR) mouse assessed as behavioral abnormalities at 2 g/kg, IG administered as single dose measured after 14 days. Particulars: in vivo, po, 2000 mg/kg, 336 h, time 14 day.
Data set [8] in a line: Acute toxicity in 12 hr fasted male CD-1(ICR) mouse assessed as pathological damage in lung at 2 g/kg, IG administered as single dose measured after 14 days by H and E staining based analysis. Format: tissue-based. Particulars: in vivo, po, 2000 mg/kg, 336 h, time 14 day.
A short description of data set [9]: Acute toxicity in 12 hr fasted female CD-1(ICR) mouse assessed as pathological damage in lung at 2 g/kg, IG administered as single dose measured after 14 days by H and E staining based analysis. It counts as tissue-based. Particulars: in vivo, po, 2000 mg/kg, 336 h, time 14 day.

In the case of `COc1cc(-c2ccc(C#N)cc2)ccc1Oc1cc(N)nc(Nc2ccc(C#N)cc2)n1`, the half-life in [1] was 1 h. Also, the concentration for a half-maximal effect (EC50) in data set [2] was found to be 0.019 µM. Moreover, the IC50 at Cytochrome P450 1A2 and at Cytochrome P450 2D6 was greater than 50 µM in each case. In addition, the time of peak concentration (Tmax) in data set [3] turned out to be 4.8 min. In data set [4], this compound yielded an AUC(0-t) of 116 ng·h/mL. In data set [5], this compound registered an AUC(0-inf) of 124 ng·h/mL. The same compound displayed an MRT inf in data set [6] of 1.18 h. Moreover, the Activity entry in data set [7], in data set [8] and in [9] was “Non-Toxic” throughout.

In general, half-life refers to the time needed for the level to fall by half in the phase considered. Higher therefore signals slow decline. For orientation: EC50 means the midpoint of the concentration-response curve. The term IC50 denotes the point on the concentration scale where inhibition reaches its midpoint. A word on the Tmax: it is the time at which the peak concentration occurs. The AUC(0-t) is the area under the concentration-time curve up to a stated or last time point. Low values mean low exposure, high ones high exposure. In general, AUC(0-inf) refers to total exposure, with the tail of the curve extrapolated. A word on the MRT inf: it is the average time that molecules of a dose stay in the body.
